Experimental data: PubChem BioAssay AID1963838 (Molecular Pharmacology Branch, DTP, NCI, 2024)

System: 855422-203-R-J1-PDC complex spheroid viability
Test: Anticancer human tumor 855422-203-R-J1-PDC patient-derived bladder carcinoma cell line growth inhibition [POLQ]
Details: for IC50: curve of first compound; for viability, T/C: stronger effect = lower value
Summary of the method: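 PDC + HUVEC + MSC complex spheroids; POLQ inhibitors ± partner drugs; top conc. at/near clinical Cmax, else 10 microM (SN-38 1 microM), half-log dilutions; 37 degrees C, 5% CO2.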

[1] = second compound 0.0316 µM, first compound 0.0316 µM
[2] = second compound 0.0316 µM, first compound 0.1 µM
[3] = second compound 0.0316 µM, first compound 0.316 µM
[4] = second compound 0.0316 µM, first compound 1 µM
[5] = second compound 0.0316 µM, first compound 3.16 µM
[6] = second compound 0.0316 µM, first compound 10 µM
[7] = second compound 0.1 µM, first compound 0.0316 µM
[8] = second compound 0.1 µM, first compound 0.1 µM
[9] = second compound 0.1 µM, first compound 0.316 µM
[10] = second compound 0.1 µM, first compound 1 µM
[11] = second compound 0.1 µM, first compound 3.16 µM
[12] = second compound 0.1 µM, first compound 10 µM
[13] = second compound 0.316 µM, first compound 0.0316 µM
[14] = second compound 0.316 µM, first compound 0.1 µM
[15] = second compound 0.316 µM, first compound 0.316 µM
[16] = second compound 0.316 µM, first compound 1 µM
[17] = second compound 0.316 µM, first compound 3.16 µM
[18] = second compound 0.316 µM, first compound 10 µM
[19] = second compound 1 µM, first compound 0.0316 µM
[20] = second compound 1 µM, first compound 0.1 µM
[21] = second compound 1 µM, first compound 0.316 µM
[22] = second compound 1 µM, first compound 1 µM
[23] = second compound 1 µM, first compound 3.16 µM
[24] = second compound 1 µM, first compound 10 µM
[25] = second compound 3.16 µM, first compound 0.0316 µM
[26] = second compound 3.16 µM, first compound 0.1 µM
[27] = second compound 3.16 µM, first compound 0.316 µM
[28] = second compound 3.16 µM, first compound 1 µM
[29] = second compound 3.16 µM, first compound 3.16 µM
[30] = second compound 3.16 µM, first compound 10 µM
[31] = second compound 10 µM, first compound 0.0316 µM
[32] = second compound 10 µM, first compound 0.1 µM
[33] = second compound 10 µM, first compound 0.316 µM
[34] = second compound 10 µM, first compound 1 µM
[35] = second compound 10 µM, first compound 3.16 µM
[36] = second compound 10 µM, first compound 10 µM
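Note: spheroids exposed to compounds for seven days before readout.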

Compound: Nc1ccn(C2OC(CO)C(O)C2(F)F)c(=O)n1 (stereo not drawn) + COC1C(OC(N)=O)C(O)C(Oc2ccc3c(O)c(NC(=O)c4ccc(O)c(CC=C(C)C)c4)c(=O)oc3c2C)OC1(C)C
- IC50 (second compound 0.0316 µM): 43.7 nM
- IC50 (second compound 0.1 µM): 48.2 nM
- IC50 (second compound 0.316 µM): 65.4 nM
- IC50 (second compound 1 µM): 58.8 nM
- IC50 (second compound 3.16 µM): 68.1 nM
- IC50 (second compound 10 µM): 65.8 nM
- viability, T/C [1]: 57.1%
- viability, T/C [2]: 31.7%
- viability, T/C [3]: 11.5%
- viability, T/C [4]: 9.46%
- viability, T/C [5]: 7.57%
- viability, T/C [6]: 6.26%
- viability, T/C [7]: 60.2%
- viability, T/C [8]: 32.2%
- viability, T/C [9]: 10.7%
- viability, T/C [10]: 8.44%
- viability, T/C [11]: 7.41%
- viability, T/C [12]: 6.76%
- viability, T/C [13]: 78.4%
- viability, T/C [14]: 33.5%
- viability, T/C [15]: 11.3%
- viability, T/C [16]: 8.38%
- viability, T/C [17]: 8.35%
- viability, T/C [18]: 5.06%
- viability, T/C [19]: 72.4%
- viability, T/C [20]: 31%
- viability, T/C [21]: 12.2%
- viability, T/C [22]: 9.87%
- viability, T/C [23]: 6.93%
- viability, T/C [24]: 6.4%
- viability, T/C [25]: 75.4%
- viability, T/C [26]: 37.3%
- viability, T/C [27]: 9.1%
- viability, T/C [28]: 9.44%
- viability, T/C [29]: 10.2%
- viability, T/C [30]: 6.39%
- viability, T/C [31]: 72.8%
- viability, T/C [32]: 37%
- viability, T/C [33]: 11.5%
- viability, T/C [34]: 11.4%
- viability, T/C [35]: 7.42%
- viability, T/C [36]: 5.66%

Compound: C#Cc1c(F)ccc2cc(O)cc(-c3ncc4c(N5CC6CCC(C5)N6)nc(OCC56CCCN5CC(F)C6)nc4c3F)c12 (stereo not drawn) + Nc1ccc(C#CCN(C(=O)Cc2ncc(C(F)(F)F)cc2C(F)(F)F)c2ccc(F)cc2)nn1
- IC50 (second compound 0.0316 µM): > 10000 nM
- IC50 (second compound 0.1 µM): > 10000 nM
- IC50 (second compound 0.316 µM): > 10000 nM
- IC50 (second compound 1 µM): > 10000 nM
- IC50 (second compound 3.16 µM): > 10000 nM
- IC50 (second compound 10 µM): > 10000 nM
- viability, T/C [1]: 110%
- viability, T/C [2]: 110%
- viability, T/C [3]: 102%
- viability, T/C [4]: 98%
- viability, T/C [5]: 110%
- viability, T/C [6]: 109%
- viability, T/C [7]: 96.4%
- viability, T/C [8]: 106%
- viability, T/C [9]: 85.6%
- viability, T/C [10]: 101%
- viability, T/C [11]: 138%
- viability, T/C [12]: 102%
- viability, T/C [13]: 100%
- viability, T/C [14]: 120%
- viability, T/C [15]: 124%
- viability, T/C [16]: 111%
- viability, T/C [17]: 120%
- viability, T/C [18]: 115%
- viability, T/C [19]: 107%
- viability, T/C [20]: 98%
- viability, T/C [21]: 107%
- viability, T/C [22]: 109%
- viability, T/C [23]: 113%
- viability, T/C [24]: 99%
- viability, T/C [25]: 92.5%
- viability, T/C [26]: 99%
- viability, T/C [27]: 97.9%
- viability, T/C [28]: 97.6%
- viability, T/C [29]: 108%
- viability, T/C [30]: 106%
- viability, T/C [31]: 103%
- viability, T/C [32]: 94.3%
- viability, T/C [33]: 90.7%
- viability, T/C [34]: 100%
- viability, T/C [35]: 103%
- viability, T/C [36]: 91.3%

Compound: CCc1cc2c(N3CCc4c(cc(Cn5ccnc5)cc4-c4cn(C)nc4C(F)(F)F)C3=O)ccnc2c(OC)n1 + Cc1cccc(N(C)C(=O)C2C(O)CCN2c2nc(C)cc(C(F)(F)F)c2C#N)c1
- IC50 (second compound 0.0316 µM): 7340 nM
- IC50 (second compound 0.1 µM): > 10000 nM
- IC50 (second compound 0.316 µM): > 10000 nM
- IC50 (second compound 1 µM): > 10000 nM
- IC50 (second compound 3.16 µM): 9200 nM
- IC50 (second compound 10 µM): 9150 nM
- viability, T/C [1]: 111%
- viability, T/C [2]: 154%
- viability, T/C [3]: 110%
- viability, T/C [4]: 96.3%
- viability, T/C [5]: 70.9%
- viability, T/C [6]: 42.2%
- viability, T/C [7]: 99.9%
- viability, T/C [8]: 147%
- viability, T/C [9]: 113%
- viability, T/C [10]: 85.7%
- viability, T/C [11]: 79.6%
- viability, T/C [12]: 47.5%
- viability, T/C [13]: 102%
- viability, T/C [14]: 151%
- viability, T/C [15]: 107%
- viability, T/C [16]: 107%
- viability, T/C [17]: 80.4%
- viability, T/C [18]: 54.2%
- viability, T/C [19]: 125%
- viability, T/C [20]: 162%
- viability, T/C [21]: 110%
- viability, T/C [22]: 90%
- viability, T/C [23]: 79.7%
- viability, T/C [24]: 51.5%
- viability, T/C [25]: 138%
- viability, T/C [26]: 166%
- viability, T/C [27]: 103%
- viability, T/C [28]: 115%
- viability, T/C [29]: 74.7%
- viability, T/C [30]: 47.8%
- viability, T/C [31]: 116%
- viability, T/C [32]: 141%
- viability, T/C [33]: 158%
- viability, T/C [34]: 112%
- viability, T/C [35]: 88.3%
- viability, T/C [36]: 46.3%

Compound: O=c1[nH]cc(F)c(=O)[nH]1 + COC1C(OC(N)=O)C(O)C(Oc2ccc3c(O)c(NC(=O)c4ccc(O)c(CC=C(C)C)c4)c(=O)oc3c2C)OC1(C)C
- IC50 (second compound 0.0316 µM): 463 nM
- IC50 (second compound 0.1 µM): 403 nM
- IC50 (second compound 0.316 µM): 370 nM
- IC50 (second compound 1 µM): 489 nM
- IC50 (second compound 3.16 µM): 518 nM
- IC50 (second compound 10 µM): 431 nM
- viability, T/C [1]: 101%
- viability, T/C [2]: 119%
- viability, T/C [3]: 59.9%
- viability, T/C [4]: 40.1%
- viability, T/C [5]: 25.9%
- viability, T/C [6]: 23.6%
- viability, T/C [7]: 107%
- viability, T/C [8]: 107%
- viability, T/C [9]: 55%
- viability, T/C [10]: 34.5%
- viability, T/C [11]: 28%
- viability, T/C [12]: 22.3%
- viability, T/C [13]: 107%
- viability, T/C [14]: 114%
- viability, T/C [15]: 53.5%
- viability, T/C [16]: 35.1%
- viability, T/C [17]: 26.3%
- viability, T/C [18]: 23.6%
- viability, T/C [19]: 118%
- viability, T/C [20]: 100%
- viability, T/C [21]: 59.2%
- viability, T/C [22]: 34%
- viability, T/C [23]: 26.7%
- viability, T/C [24]: 21.5%
- viability, T/C [25]: 98.8%
- viability, T/C [26]: 93.4%
- viability, T/C [27]: 58.4%
- viability, T/C [28]: 37.5%
- viability, T/C [29]: 28.2%
- viability, T/C [30]: 22%
- viability, T/C [31]: 117%
- viability, T/C [32]: 101%
- viability, T/C [33]: 54.7%
- viability, T/C [34]: 35.3%
- viability, T/C [35]: 26.2%
- viability, T/C [36]: 23.4%
